# Test system: Plasmodium falciparum
# Assay: GSK_TCMDC: Inhibition of Plasmodium falciparum 3D7 in whole erythrocytes, using parasite LDH activity as an index of growth.
# Assay type: functional, organism-based
# Conditions: Plasmodium falciparum, 3D7
row,SMILES,XC50 [nM]
1,COc1cc(-c2ccccc2)ccc1C(=O)Nc1ccc2c(c1)N(C)CCC2,325
2,O=C(/C=C/c1ccc(Br)cc1)NCCCCCN1CCC(c2c[nH]c3ccccc23)CC1,724
3,CCc1cc2c3c(N)nc(N)nc3ccc2n1C(CC)CC,63.7
4,COc1cc(Cn2ccc3c4c(N)nc(N)nc4ccc32)cc(OC)c1OC,9.34
5,CCNCc1ccc(-c2cc3ncnc(Nc4ccc(OCc5cccc(F)c5)c(Cl)c4)c3s2)[nH]1,109
6,COc1ccc2nccc([C@@H](O)CN3CCC(NC(=O)C(c4cc5ccccc5o4)N4CCN(c5ccc(F)cc5)CC4)CC3)c2c1 (some centres not stated),197
7,COc1ccc(CNCc2ccc(-c3ccc(-c4nc5cc(C(F)(F)F)ccc5[nH]4)s3)cc2)cc1,174
8,Cc1cc(NC(=O)Nc2cccc(N(C)C)c2)c2ccccc2n1,201
9,Oc1ccc(CN2CCC(NCc3cccc4ccccc34)CC2)cc1,1200
10,Nc1c(I)cc(C(=O)Nc2ccc3nc4c(c(N)c3c2)CCCC4)cc1I,143
11,COc1ccc(C2CC(c3ccccc3)=NN2C(=O)c2ccc(Br)o2)cc1 (configuration not stated),323
12,COc1ccc(NC(=O)Nc2ccc(Nc3nc(C)cc(N(C)C)n3)cc2)cc1,454
13,N=C1N=C(N)NCN1OCc1ccc(Cl)c(Cl)c1,194
14,CC[C@H]1CN2CC[C@H]1C[C@H]2[C@H](O)c1cc(-c2ccc(Cl)c(Cl)c2)nc2ccc(OC)cc12,115
15,CCCC1N=C(N)N=C(N)N1c1cccc([N+](=O)[O-])c1 (configuration not stated),760
16,Cn1cc(CN2CCCC(COC(c3ccccc3)c3ccccc3)C2)cn1 (configuration not stated),775
17,COc1ccc2nccc([C@@H](O)CN3CCC(NC(=O)/C=C/c4cc(F)cc(NC(C)=O)c4)CC3)c2c1,183
18,O=C(NCCc1ccc(Cl)c(Cl)c1)[C@@H]1CCCN1C(=O)c1ccc(O)c(-c2cccc(C(F)(F)F)c2)c1,825
19,O=c1cc(NCCCNCc2cc(Cl)c(Cl)cc2Cl)[nH]c2ccccc12,966
20,O=S(=O)(NCCN1CCCC1)c1cccc(-c2ccccc2CNC2Cc3ccccc3C2)c1,738
21,COc1ccc2ncc(F)c(CCN3CC[C@@H](CNCc4cc(C)c5c(c4)OCCO5)C3)c2n1,890
22,O=C(Nc1ccc(C(F)(F)F)cc1)c1ccc(S(=O)(=O)NC2CCN(CC3CCCCC3)C2)cc1 (configuration not stated),723
23,COc1ccc(CCN(C)CCOc2ccc(NC(=O)c3cc(SC)cc4c(=O)c5ccccc5[nH]c34)cc2)cc1OC,1400
24,COc1ccc(CCN(Cc2cccs2)C(=O)c2cc3sccc3n2C)cc1OC,349
25,COCCNCc1ccc(-c2ccc3c(Nc4ccc(F)cc4Cl)ccnc3c2)o1,209

row,SMILES,XC50 [nM]
1,NCCCNc1nc(Nc2cccc(C(N)=O)c2)c2c(=O)[nH]ccc2n1,594
2,CCCC1(NC[C@@H](O)[C@H](Cc2ccccc2)NC(=O)c2cc(NCC)cc(N3CCCCS3(=O)=O)c2)CCC1,720
3,OCCN1CCN(C(=S)NC2CCCCC2)CC1,1100
4,O=C(/C=C/c1ccc(Cl)cc1)NCCCCCN1CCC(C(=O)Nc2ccc(Cl)c(Cl)c2)CC1,766
5,Nc1nc(N)c2c(ccc3c2ccn3CCCF)n1,149
6,N#Cc1cc([N+](=O)[O-])ccc1-n1nc(C(N)=O)n(Cc2cccc(F)c2)c1=S,721
7,CCNc1cc(C(=O)N[C@@H](Cc2ccc(F)c(F)c2)[C@H](O)CNCc2cccc(OC)c2)cc(N2CCCCS2(=O)=O)c1,749
8,COc1cccc(C2CCN(CCN3CCC(NC(=O)c4ccc(-c5ccc(C(F)(F)F)cc5)cc4)CC3)CC2)c1,203
9,CCCCCN1CCCN(Cc2cccc(NC(=O)c3ccc4ccccc4c3)c2)CC1,1220
10,CCc1ccccc1NC(=O)CN1CCN(c2ncnc3scc(-c4ccc(F)cc4)c23)CC1,702
11,COc1cc(NC(=O)c2ccc(-c3ccccc3)cc2)ccc1OCCCN1CCC(c2ccccc2)CC1,752
12,O=C(Cc1ccc(NC(=O)c2ccc(O)c(-c3ccc(Cl)c(Cl)c3)c2)cc1)NCc1cccc(C(F)(F)F)c1,878
13,O=C(/C=C/c1c(Cl)cccc1Cl)NC1CCC(CN2CCC(Cc3cc4ccccc4[nH]3)CC2)CC1 (configuration not stated),975
14,Cc1ccc(C(=O)Nc2ccc(Nc3ccnc4cc(-c5ccncc5)ccc34)cc2O)cc1,929
15,CN(C)CC(=O)N(Cc1ccc(Cl)c(Cl)c1)Cc1csc(-c2ccc(CNCc3ccccc3)cc2)n1,1050
16,NCCCN(Cc1ccc(Cl)c(Cl)c1)C(=O)Nc1ccc(Cl)c(Cl)c1,898
17,Cc1ccc(C(=O)N2CCN(Cc3nccs3)CC2)cc1,1010
18,COc1ccc2nc(NC(N)=NC(=O)Nc3ccccc3)nc(C)c2c1,1280
19,COc1ccc(CN(C)CCCc2ccc(NC(=O)c3cccc4c(=O)c5cccc(F)c5[nH]c34)cc2)cc1OC,937
20,COc1ccc(-c2ccc(NC(=O)c3cccs3)cc2)cc1CN1CCCN(C)CC1,964
21,CNC(=N)c1ccc(NC(=O)c2ccc(C(=O)Nc3ccc(C(=N)NC)cc3)cc2)cc1,47.1
22,COc1ccccc1N1CCN(CCCCNC(=O)c2ccc(NC(=O)c3cc4ccccc4o3)cc2)CC1,978
23,CNCCNCc1cccc(-c2ccc(-c3nc4cc(C(F)(F)F)ccc4[nH]3)s2)c1,823
24,O=C(Nc1ccc(Oc2ccccc2)cc1)N[C@H]1CCN(Cc2ccc(OCCCN3CCCCC3)cc2)C1,179
25,CCOc1ccc2c(=NN=Cc3ccccn3)cc(C)[nH]c2c1,862

row,SMILES,XC50 [nM]
1,COc1cccc(NC(=O)NC2CCN(CCCCCNC(=O)/C=C/c3ccc(Cl)c(Cl)c3)CC2)c1,777
2,CC(C)(C)NC(=O)C(c1ccc(F)cc1)N(C(=O)c1ccc(CN2CCOCC2)o1)c1ccc(C2CCCCC2)cc1 (configuration not stated),925
3,Cc1[nH]c(C)c(-c2ccc(CCc3ccc(C(F)(F)F)cc3)nc2)c(=O)c1Cl,88.1
4,Cc1nc(C)c(-c2ccc(Oc3ccc(Cl)cc3Cl)cc2)c(O)c1Br,297
5,CC(C)(C)c1ccccc1OC(=O)c1ccccc1,740
6,COc1cc(C(=O)N2COCC(CCCN3CCC(N4CCCC4)CC3)(c3ccc(Cl)c(Cl)c3)C2)cc(OC)c1OC (configuration not stated),785
7,O=C(NCCCCN1CCC(c2ccc3ccccc3c2O)CC1)c1ccc(-c2ccc(Cl)cc2)cc1,181
8,Cc1ccccc1C1=CCN(CCCN2c3ccccc3Sc3ccc(Cl)cc32)CC1,871
9,CCCN(CCC)CC(O)COc1ccccc1C(=O)Nc1ccccc1 (configuration not stated),799
10,Cc1cccc2nc(-c3cccc(-c4cccc(CN5CCN(c6ccncc6)CC5)c4)c3)[nH]c12,200
11,O=C(Nc1cccc(C(F)(F)F)c1)c1cccc(S(=O)(=O)NCC2CCCN(CC3CCCCC3)C2)c1 (configuration not stated),880
12,COc1ccc([N+](=O)[O-])cc1N(Cc1ccccc1-c1ccccc1)S(=O)(=O)c1ccc(C(F)(F)F)cc1[N+](=O)[O-],1050
13,COc1ccc2cc(C(C)NC3CCN(c4cccc(NC(=O)c5ccncc5)c4)CC3)ccc2c1 (configuration not stated),1550
14,CC(C)C[C@H](NC(=O)c1ccc(F)cc1)C(=O)N[C@H](/C=N/NC(=O)c1ccccc1)CCc1ccccc1,812
15,CC(C)(c1ccccc1)c1ccc(O)c(CN2CCOCC2)c1,984
16,Oc1c(C(Nc2nc3ccccc3s2)c2ccc(OC(F)F)cc2)ccc2cccnc12 (configuration not stated),571
17,COc1cccc2cc(C(=O)N[C@@H](CC(C)C)C(=O)N[C@H](/C=N/NC(=O)OC(C)(C)C)CC(=O)OC(C)(C)C)oc12,403
18,CCc1ccnc2c(N3CCCC3=O)cc(C(=O)N[C@@H](Cc3ccccc3)[C@H](O)CNC3CCOCC3)cc12,381
19,N#Cc1ccc(N2CCN(Cc3ccc(-c4ccc(-c5nc6cc(F)ccc6[nH]5)s4)cc3)CC2)nc1,854
20,O=C(NC1CCN(Cc2ccccc2)CC1)c1ccc(-c2nc3cc(Cl)c(Cl)cc3[nH]2)s1,308
21,CCC(=O)NC(c1ccco1)c1cc(Cl)c2cccnc2c1O (configuration not stated),875
22,CNC(=O)c1nc(-c2ccccc2)[nH]c1NC(C)=O,152
23,Cc1cccc2nc(-c3ccc(-c4cccc(NC(=O)Nc5cccc(C#N)c5)c4)cc3)[nH]c12,544
24,O=C(CSc1nn(-c2ccccc2)c(=S)s1)c1c[nH]c2ccccc12,1090
25,CO/C(=C\C=C\c1cc2cc(Cl)c(Cl)cc2[nH]1)C(=O)NCCCN1CCCC[C@@H]1C,755

row,SMILES,XC50 [nM]
1,O=C1Nc2cccc3c2C1(CCCCN1CC=C(c2c[nH]c4ncccc24)CC1)CCC3 (configuration not stated),395
2,N#Cc1ccc(N(CCOc2ccc3c(c2)CCC(=O)N3)Cc2ccccc2C(F)(F)F)cc1C(F)(F)F,763
3,CSc1ccccc1NC(=S)NC1CCN(CCCCCNC(=O)/C=C/c2ccc(Cl)c(Cl)c2)CC1,778
4,CC1(C)NC(N)=NC(=N)N1OCc1cccs1,3.2
5,CCCc1cc(O)c2c3c(c(=O)oc2c1)CN(C)CC3,873
6,CCC[C@@H]([C@@H](CC(C)C)C(=O)N[C@H](C(=O)Nc1nccs1)C(C)(C)SCCNC(=O)OCC)N(O)C=O,173
7,C=CCC(C)n1ncc2c3c(N)nc(N)nc3ccc21 (configuration not stated),50
8,Cc1cccc2nc(-c3ccc(-c4cccc(CNCCNC(=O)c5ccnn5C)c4)s3)[nH]c12,216
9,Cc1cccc(-c2nn(-c3ccccc3)c3[nH]c(=O)c(CNC4CCCC4)cc23)c1,759
10,CNCCNCc1ccc(-c2ccc(-c3nc4cc(F)ccc4[nH]3)cc2)cc1,387
11,CCCNCc1ccc(-c2ccc(CNC3Cc4ccccc4C3)cc2)nc1,848
12,COc1cc(-c2nc3ccc(N4CCN(C)CC4)cc3[nH]2)cc(OC)c1OC,1270
13,COc1cc2nc(N3CCC(c4ccccc4)CC3)nc(NCc3ccc(=O)[nH]c3)c2cc1OC,755
14,CCCCCCn1c(Sc2ccc(C#N)c([N+](=O)[O-])c2)nnc1-c1cccs1,706
15,COc1ccc(CN2CCN(CCOC(c3ccccc3)c3ccccc3)CC2)c(O)c1,1190
16,O=[N+]([O-])c1ccc(/C=N/Nc2cc(-c3ccccc3)nc3ccccc23)o1,863
17,O=C(/C=C/c1ccc(Cl)c(Cl)c1)NCCCCCN1CCC(NC(=O)Nc2ccc(C(F)(F)F)cc2)CC1,750
18,O=C(C=Cc1cccc(F)c1)NC1CCC(CCN2CCc3ccc(-c4cnccn4)cc3CC2)CC1 (configuration not stated),454
19,COc1ccc(-c2cnc3[nH]cc(-c4ccc(C(=O)O)cc4)c3c2)cn1,541
20,CN1CCC(Oc2cc(NC(=O)Nc3ccc(-c4ccncc4)c(C(F)(F)F)c3)ccc2Cl)CC1,780
21,CCCOc1cc(Cc2cnc(N)nc2N)cc(OC)c1OC,1170
22,CCCC(=O)c1cnc2cc(O)ccc2c1Nc1ccccc1C,651

# — ChEMBL document CHEMBL1157539, “Thousands of chemical starting points for antimalarial lead identification” (Nature, 2010)
